# Measurements from US20160120840A1, “METHOD AND COMPOSITION FOR TREATING NONEROSIVE REFLUX DISEASE” (SUCAMPO AG, priority 2014, published 2016).
# Assays:
# claudin-4 = assay: Quantitative real-time RT-PCR, claudin-4 expression in mouse esophagus tissue; assay type: in vivo; conditions: 6 days, TCA/DCA with 50 μM Compound A in drinking water, n=3; FIG. 4
# Protocol: (§1) mRNA was prepared from mouse esophagus tissue after 6 days of treatment with vehicle or active agents (Group1:DMSO control, Group2:TCA/DCA positive control, and Group3:TCA/DCTA with 50 μM Compound A in drinking water, n=3 in each group) and reversely transcribed to cDNA by reverse transcriptase (Superscript III, Invitrogen).
# (§2) Expression levels of claudin-2 which is expressed in cation-leaky epithelia, and claudin-4 which is a component of tight junction strands (PNAS 107(17), 8011-8016, 2010; Development Biology 312, 509-522, 2007; and Seminars in Cell & Developmental Biology 36 166-176, 2014), were normalized to GAPDH expression by calculating the A Ct=(Ct of GAPDH−Ct of gene). Setting the expression value of GAPDH to 1.0, the relative expression values were then calculated as 2̂ΔCt.
# [1] = tested on: mouse esophageal tissues (epithelial layer); assay: HE staining of mouse esophageal tissues; assay type: in vivo; conditions: 6 days of treatment, Compound A with TCA/DCA; FIG. 2
# Excerpt: The mouse esophageal tissues were isolated after 6 days of treatment with control vehicle or drugs (DMSO, TCA/DCA, or Compound A with TCA/DCA). The tissues were separated into two parts, and their lower parts were used for preparation of RT-PCR samples as well as for electrophysiological examination and HE staining. The samples for HE staining were fixed with 10% neutral buffered formalin solution for 12 hrs, after which they were dehydrated and fixed in paraffin. The samples were sliced into 7 μm thick slices in a microtome, and then placed on slide glasses at 43° C. for lhr and then at 55° C. overnight. Following this, tissues were stained with Hematoxylin and Eosin staining solution. The samples were evaluated in a suitable microscope (Olympus EX-43).
# [2] = tested on: esophagus tissues (non-erosive esophageal damage induced by TCA and DCA); assay: Effect on non-erosive esophageal damage: tissue conductance of esophagus in Ussing chamber after TCA+DCA treatment; assay type: in vivo, C57Bl/6J mice; conditions: mice given 4 mM TCA and 2 mM DCA in drinking water for 6 days, Compound A in drinking water for the same period; versus TCA+DCA control; FIG. 1
# Protocol: Effect on non-erosive esophageal damage Male or female C57Bl/6J mice were allowed free access to drinking tap water containing 4 mM taurocholic acid (TCA) and 2 mM deoxycholic acid (DCA) for 6 days. On the day after treatment with TCA and DCA, the mice were sacrificed and their esophagus was removed. The esophagus tissues were divided into two parts and distal parts were used for the study. Each tissue was mounted in the Ussing chamber and short-circuit currents were measured. Compound A ((−)-7-{(2R,4aR,5R,7aR)-2-[(3S)-1,1-difluoro-3-methylpentyl]-2-hydroxy-6-oxooctahydrocyclopenta[b]pyran-5-yl}heptanoic acid) was administered to mice in drinking water for the same period of TCA+DCA treatment. Tissue conductance calculated based on the short-circuit current data was used as an index of tissue damage.
# claudin-2 = assay: Quantitative real-time RT-PCR, claudin-2 expression in mouse esophagus tissue; assay type: in vivo; conditions: 6 days, TCA/DCA with 50 μM Compound A in drinking water, n=3; FIG. 3
# Protocol: as §1, §2
smiles,measurement,setting,value
"CC[C@H](C)CC(F)(F)[C@@]1(O)CC[C@H]2[C@@H](CC(=O)[C@@H]2CCCCCCC(=O)O)O1 [Compound A, (−)-7-{(2R,4aR,5R,7aR)-2-[(3S)-1,1-difluoro-3-methylpentyl]-2-hydroxy-6-oxooctahydrocyclopenta[b]pyran-5-yl}heptanoic acid]",Expression level of claudin-4 (normalized to GAPDH),claudin-4,upregulated
same,"Tissue structure (HE staining), damage of epithelial layer by bile acids",[1],restores or protects against damage by bile acids histologically
same,Tissue conductance (index of tissue damage),[2],reduced from that found in control animals
same,Expression level of claudin-2 (normalized to GAPDH),claudin-2,downregulated
